In article PMC5554727 (The Journal of steroid biochemistry and molecular biology, 2017):

Target: SULT1A1 (Homo sapiens, UniProt P50225)
Experiment: inhibition of sulfonation of […]C-p-nitrophenol by recombinant enzyme
Assay type: biochemical

SULT1A1, sequence (P50225 whole entry): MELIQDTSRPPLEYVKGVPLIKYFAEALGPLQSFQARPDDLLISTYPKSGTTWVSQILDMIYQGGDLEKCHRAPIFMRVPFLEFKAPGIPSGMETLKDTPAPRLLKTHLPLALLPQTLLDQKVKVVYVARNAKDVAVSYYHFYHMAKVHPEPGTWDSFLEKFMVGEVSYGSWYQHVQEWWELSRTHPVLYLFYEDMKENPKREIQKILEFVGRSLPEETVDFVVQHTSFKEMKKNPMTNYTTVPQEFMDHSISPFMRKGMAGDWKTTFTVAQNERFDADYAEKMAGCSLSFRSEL

Question: With `Cc1ccc(-c2cc(C(F)(F)F)nn2-c2ccc(S(N)(=O)=O)cc2)cc1` [celecoxib] as the compound, how does the IC50 read?
Answer: Its IC50 is 2100 nM.
